Data from US7910593B2, “Water-soluble prodrugs” (Chugai Seiyaku Kabushiki Kaisha, priority 2004, dated 2011).

Experiments:
[1] = Test Example 1: conversion of compound 2A into activated form in monkey serum; assay type: in vitro ADME; conditions: for compound 2A (measured values, %): monkey serum, 50 μM, 37° C.
Procedure: (§1) The percentages of compound 2A produced in Example 2 being converted into an activated form in sera of humans, mice, monkeys, and dogs were determined. The activated form is in a rapid equilibrium between the lactone form and the carboxylate form, which were quantified separately.
(§2) Compound 2A was incubated at 37° C. at a concentration of 50 μM in sera of humans, mice, monkeys, and dogs. Incubation was terminated at a given time (0, 30, 60, 120, and 360 minutes), and the samples were analyzed by HPLC after deproteinization treatments.
(§3) Conditions for the HPLC analysis are as follows: • HPLC conditions • Column: Develosil C30-UG-3, 3 μm, 50×4.6 mm I.D • Column Temperature: constant temperature at approximately 25° C. • Mobile phase: A: 10 mM phosphate buffer (pH4.7) • B: acetonitrile • /B (min): 90/10(0)→90/10(0.4)→40/60(6)→2/98(8)→90/10(9)→90/10(15)
(§4) Flow rate: 1.0 mL/min • Detection: photodiode array detector, detection wavelength 350 nm • Amount injected: 30 μL
(§5) Generally, camptothecins in solution are in a rapid equilibrium between a structure in which the carbonyl at position 3 forms a 6-membered cyclic ester with the oxygen at position 2, and its open-ring structure. The lactone form refers to the former condition and the carboxylate form refers to the latter condition.

[2] = Test Example 5: conversion of compound 2A into activated form in human sera; assay type: in vitro ADME; conditions: for compound 2A (measured values, %): Test Example 5, human sera, 50 μM, 37° C.
Procedure: (§6) The percentages of compound 2A produced in Example 2 being converted into an activated form in sera of humans, rats, mice, monkeys, and dogs were determined. The activated form is in a rapid equilibrium between the lactone form and the carboxylate form, which were quantified separately.
(§7) Compound 2A was incubated at 37° C. at a concentration of 50 μM in sera of humans, mice, rats, monkeys, and dogs. Incubation was terminated at a given time (0, 30, 60, 120, and 360 minutes), and the samples were analyzed by HPLC after deproteinization treatments.
(§8) Conditions for the HPLC analysis are as follows: • HPLC conditions • Column: Develosil C30-UG-3, 3 μm, 35×4.6 mm I.D • Column Temperature: constant temperature at approximately 25° C. • Mobile phase: A: 10 mM phosphate buffer (pH4.7) • B: acetonitrile • /B (min): 90/10(0)→90/10(0.4)→40/60(6)→2/98(8)→90/10(9)→90/10(15) • Flow rate: 1.0 mL/min • Detection: photodiode array detector, detection wavelength 350 nm • Amount injected: 30 μL
as §5

[3] = Test Example 5: conversion of compound 2A into activated form in mouse sera; assay type: in vitro ADME; conditions: for compound 2A (measured values, %): Test Example 5, mouse sera, 50 μM, 37° C.
Procedure: as §6, §7, §8, §5

[4] = Test Example 2: stability at various pH values in buffers; assay type: physicochemical; conditions: for Percent remaining: 25 μM, 25° C.
Procedure: The stability of compound 2A at various pH values was determined. The present compound was placed in buffers of various pHs at a concentration of 25 μM. After incubation at 25° C. for 0, 3, and 6 hours, the compound was analyzed by HPLC.
The buffers used at each pH are shown below. • pH2.0: 50 mM HCl-KCl buffer • pH3.0: 50 mM citrate buffer • pH4.0: 50 mM citrate buffer • pH5.0: 50 mM succinate buffer • pH6.5: 50 mM phosphate buffer • pH7.4: 50 mM phosphate buffer
as §8, with “for” for “for the”, “50×4.6” for “35×4.6”, “•” for “• /B”

[5] = Test Example 5: conversion of compound 2A into activated form in dog sera; assay type: in vitro ADME; conditions: for compound 2A (measured values, %): Test Example 5, dog sera, 50 μM, 37° C.
Procedure: as §6, §7, §8, §5

[6] = Test Example 1: conversion of compound 2A into activated form in mouse serum; assay type: in vitro ADME; conditions: for compound 2A (measured values, %): mouse serum, 50 μM, 37° C.
Procedure: as §1, §2, §3, §4, §5

[7] = Test Example 1: conversion of compound 2A into activated form in human serum; assay type: in vitro ADME; conditions: for compound 2A (measured values, %): human serum, 50 μM, 37° C.
Procedure: as §1, §2, §3, §4, §5

CCCCCN1C=Nc2cccc3nc4c(c1c23)Cn1c-4cc2c(c1=O)COC(=O)[C@@]2(CC)OC(=O)CN(C)C(=O)CN.Cl [Compound 2A, (9S)-9-Ethyl-9-(glycyl-sarcosyloxy)-1-pentyl-1H,12H-pyrano[3″,4″:6′,7′]indolizino[1′,2′:6,5]pyrido[4,3,2-de]quinazoline-10,13(9H,15H)-dione hydrochloride]
conversion to the lactone form (in words) ([1]; monkey sera, Test Example 1): quickly converted to the lactone form | compound 2A (measured values, %) ([1]; incubation 0 minutes): 0% | compound 2A (measured values, %) ([1]; incubation 30 minutes): 0% | compound 2A (measured values, %) ([1]; incubation 60 minutes): 0% | compound 2A (measured values, %) ([1]; incubation 120 minutes): 0% | compound 2A (measured values, %) ([1]; incubation 360 minutes): 0% | compound 2A (measured values, %) ([2]; incubation 0 minutes): 0% | compound 2A (measured values, %) ([2]; incubation 30 minutes): 0% | compound 2A (measured values, %) ([2]; incubation 60 minutes): 0% | compound 2A (measured values, %) ([2]; incubation 120 minutes): 0% | compound 2A (measured values, %) ([2]; incubation 360 minutes): 0% | conversion to the lactone form (in words) ([2]; human sera, Test Example 5): quickly converted to the lactone form | compound 2A (measured values, %) ([3]; incubation 0 minutes): 0% | compound 2A (measured values, %) ([3]; incubation 30 minutes): 0% | compound 2A (measured values, %) ([3]; incubation 60 minutes): 0% | compound 2A (measured values, %) ([3]; incubation 120 minutes): 0% | compound 2A (measured values, %) ([3]; incubation 360 minutes): 0% | conversion to the lactone form (in words) ([3]; mouse sera, Test Example 5): quickly converted to the lactone form | Percent remaining ([4]; pH 2.0, 50 mM HCl-KCl buffer, 0 hr): 100% | Percent remaining ([4]; pH 2.0, 50 mM HCl-KCl buffer, 3 hr): 101.6% | Percent remaining ([4]; pH 2.0, 50 mM HCl-KCl buffer, 6 hr): 101.1% | Percent remaining ([4]; pH 3.0, 50 mM citrate buffer, 0 hr): 100% | Percent remaining ([4]; pH 3.0, 50 mM citrate buffer, 3 hr): 100.3% | Percent remaining ([4]; pH 3.0, 50 mM citrate buffer, 6 hr): 101.1% | Percent remaining ([4]; pH 4.0, 50 mM citrate buffer, 0 hr): 100% | Percent remaining ([4]; pH 4.0, 50 mM citrate buffer, 3 hr): 98.2% | Percent remaining ([4]; pH 4.0, 50 mM citrate buffer, 6 hr): 96.1% | Percent remaining ([4]; pH 5.0, 50 mM succinate buffer, 0 hr): 100% | Percent remaining ([4]; pH 5.0, 50 mM succinate buffer, 3 hr): 76.6% | Percent remaining ([4]; pH 5.0, 50 mM succinate buffer, 6 hr): 58.7% | Percent remaining ([4]; pH 6.5, 50 mM phosphate buffer, 0 hr): 100% | Percent remaining ([4]; pH 6.5, 50 mM phosphate buffer, 3 hr): 0% | Percent remaining ([4]; pH 6.5, 50 mM phosphate buffer, 6 hr): 0% | Percent remaining ([4]; pH 7.4, 50 mM phosphate buffer, 0 hr): 100% | Percent remaining ([4]; pH 7.4, 50 mM phosphate buffer, 3 hr): 0% | Percent remaining ([4]; pH 7.4, 50 mM phosphate buffer, 6 hr): 0% | stability (in words) ([4]; up to pH3): stable | compound 2A (measured values, %) ([5]; incubation 0 minutes): 0% | compound 2A (measured values, %) ([5]; incubation 30 minutes): 0% | compound 2A (measured values, %) ([5]; incubation 60 minutes): 0% | compound 2A (measured values, %) ([5]; incubation 120 minutes): 0% | compound 2A (measured values, %) ([5]; incubation 360 minutes): 0% | conversion to the lactone form (in words) ([5]; dog sera, Test Example 5): quickly converted to the lactone form | conversion to the lactone form (in words) ([6]; mouse sera, Test Example 1): quickly converted to the lactone form | compound 2A (measured values, %) ([6]; incubation 0 minutes): 0% | compound 2A (measured values, %) ([6]; incubation 30 minutes): 0% | compound 2A (measured values, %) ([6]; incubation 60 minutes): 0% | compound 2A (measured values, %) ([6]; incubation 120 minutes): 0% | compound 2A (measured values, %) ([6]; incubation 360 minutes): 0% | conversion to the lactone form (in words) ([7]; human sera, Test Example 1): quickly converted to the lactone form | compound 2A (measured values, %) ([7]; incubation 0 minutes): 0% | compound 2A (measured values, %) ([7]; incubation 30 minutes): 0% | compound 2A (measured values, %) ([7]; incubation 60 minutes): 0% | compound 2A (measured values, %) ([7]; incubation 120 minutes): 0% | compound 2A (measured values, %) ([7]; incubation 360 minutes): 0%
